# Measurements: patent US6838479B2, “Amidine inhibitors of serine proteases” (Genentech, Inc., priority 2000, dated 2005)
# “And” between values parts separate entries of the source, which are not always exact repeats. Identical values can stand only once.
# Tests used:
# Assay type in all cases: biochemical
# [1] = biological target: tissue factor/factor VIIa (Homo sapiens, UniProt P08709); assay: Tissue Factor/Factor VIIa antagonist assay (chromogenic, Ki); conditions: 10 nM VIIa, 30 nM TF, Chromozym-tPA 1.33 mM; read-out: binding affinity to serine proteases: VIIa
# Experimental: Tissue Factor/Factor VIIa Antagonist Assay
# This procedure is used to determine the constant of inhibition (Ki) for a sample compound of the invention.
# Procedure • 1. Prepare a solution of 2 μg/mL (90 nM) tissue factor and 1.5 μg/mL (30 nM) factor VIIa in assay buffer with CaCl2. • 2. Incubate for 15 minutes at room temperature. • 3. Add 50 μL sample to each well. • 4. Add 50 μL tissue factor/factor VIIa solution to each well. • 5. Incubate for 15 minutes at room temperature with gentle agitation. • 6. Add 50 μL substrate to each well. • 7. Agitate plate for 20-25 sec. • 8. Monitor absorbance at 405 nm every 10 see for a total of 5 minutes at room temperature. • 9. Calculate Vmax over 10 points.
# human Factor Xa = biological target: T1, human Factor Xa (Homo sapiens, UniProt P00742); assay: Factor Xa assay (chromogenic, Ki); conditions: 3.3 nM Xa, S-2222 0.5 mM; read-out: binding affinity to serine proteases: Xa
# T1 construct: This complex converts factor X to Xa
# Experimental: (§1) Factor Xa, Thrombin, and Plasma Kallikrein Assays
# (§2) These procedures are used to determine the constant of inhibition (Ki) for a sample compound of the invention.
# (§3) Procedure • 1. Add 50 μL sample to each well. • 2. Add 50 μL appropriately diluted coagulation factor to each well. • 3. Incubate for 5 minutes at room temperature with gentle agitation. • 4. Add 50 μL appropriately diluted substrate to each well. • 5. Agitate plate for 20-25 sec. • 6. Monitor absorbance at 405 nm every 10 sec for a total of 5 minutes at room temperature. • 7. Calculate Vmax over 10 points.
# human Thrombin = biological target: T2, human Thrombin (Homo sapiens, UniProt P00734); assay: Thrombin assay (chromogenic, Ki); conditions: 8.2 nM thrombin, S-2266 0.3 mM; read-out: binding affinity to serine proteases: thrombin
# T2 construct: rapidly converts prothrombin to thrombin
# Experimental: as §1, §2, §3
# trypsin = biological target: T3, trypsin (Bos taurus, UniProt P00760); assay: Trypsin binding affinity; conditions: read-out: binding affinity to serine proteases: trypsin
# T3 sequence (P00760 24-246): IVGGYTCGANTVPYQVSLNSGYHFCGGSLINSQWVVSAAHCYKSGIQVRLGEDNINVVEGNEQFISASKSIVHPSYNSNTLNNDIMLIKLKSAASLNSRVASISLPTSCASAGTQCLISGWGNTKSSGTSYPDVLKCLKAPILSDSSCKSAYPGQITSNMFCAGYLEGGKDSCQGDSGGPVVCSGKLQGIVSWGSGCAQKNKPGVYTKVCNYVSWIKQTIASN
# plasmin = plasmin (Homo sapiens, UniProt P00747); assay: Plasmin binding affinity; conditions: read-out: binding affinity to serine proteases: plasmin
# human Plasma Kallikrein = human Plasma Kallikrein (Homo sapiens, UniProt P03952); assay: Plasma Kallikrein assay (chromogenic, Ki); conditions: 1.5 nM plasma kallikrein, S-2302 0.3 mM; read-out: binding affinity to serine proteases: kallikrein
# Experimental: as §1, §2, §3
# Sequence of tissue factor/factor VIIa (P08709 213-466 limits assumed): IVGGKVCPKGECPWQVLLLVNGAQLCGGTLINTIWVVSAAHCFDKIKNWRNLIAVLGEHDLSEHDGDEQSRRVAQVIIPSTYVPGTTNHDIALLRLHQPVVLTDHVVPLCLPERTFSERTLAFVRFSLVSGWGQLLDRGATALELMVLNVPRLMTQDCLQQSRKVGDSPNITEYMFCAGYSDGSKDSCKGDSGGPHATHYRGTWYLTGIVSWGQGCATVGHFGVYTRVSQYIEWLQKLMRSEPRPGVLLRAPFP
# Sequence of tissue factor/factor VIIa (P08709 61-212 limits assumed): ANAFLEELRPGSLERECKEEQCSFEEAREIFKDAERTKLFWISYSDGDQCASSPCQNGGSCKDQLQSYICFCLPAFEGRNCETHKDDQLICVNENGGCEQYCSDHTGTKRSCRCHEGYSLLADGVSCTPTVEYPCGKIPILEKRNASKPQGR
# Sequence of tissue factor/factor VIIa (P13726 33-251 partner limits assumed): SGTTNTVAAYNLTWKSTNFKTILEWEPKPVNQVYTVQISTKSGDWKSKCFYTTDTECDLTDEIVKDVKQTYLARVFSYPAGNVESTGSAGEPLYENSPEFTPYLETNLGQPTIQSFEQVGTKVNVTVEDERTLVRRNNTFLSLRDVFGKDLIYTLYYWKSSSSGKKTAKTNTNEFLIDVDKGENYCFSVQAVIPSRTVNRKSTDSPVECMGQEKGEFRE
# Sequence of plasmin (P00747 581-810 limits assumed, species assumed): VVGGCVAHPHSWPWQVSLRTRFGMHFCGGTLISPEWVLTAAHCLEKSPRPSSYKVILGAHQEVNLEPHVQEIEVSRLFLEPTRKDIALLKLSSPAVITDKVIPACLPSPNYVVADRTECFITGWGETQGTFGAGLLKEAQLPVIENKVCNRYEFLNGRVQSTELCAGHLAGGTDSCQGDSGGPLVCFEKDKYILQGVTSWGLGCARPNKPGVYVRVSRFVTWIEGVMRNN
# Sequence of plasmin (P00747 97-580 partner limits assumed, species assumed): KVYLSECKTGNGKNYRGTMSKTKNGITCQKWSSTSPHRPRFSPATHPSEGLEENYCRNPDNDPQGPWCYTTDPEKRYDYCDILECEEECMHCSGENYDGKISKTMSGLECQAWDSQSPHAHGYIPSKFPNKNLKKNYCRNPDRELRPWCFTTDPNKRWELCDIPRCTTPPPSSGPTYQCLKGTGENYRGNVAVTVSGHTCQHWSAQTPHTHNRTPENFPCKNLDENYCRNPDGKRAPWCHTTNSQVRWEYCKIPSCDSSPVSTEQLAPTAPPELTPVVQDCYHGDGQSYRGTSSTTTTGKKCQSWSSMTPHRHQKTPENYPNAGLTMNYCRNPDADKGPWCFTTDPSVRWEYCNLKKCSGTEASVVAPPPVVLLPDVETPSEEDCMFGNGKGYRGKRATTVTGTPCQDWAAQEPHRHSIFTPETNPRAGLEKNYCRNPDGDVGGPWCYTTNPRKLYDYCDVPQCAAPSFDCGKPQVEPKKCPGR
# T1 sequence (P00742 235-488 limits assumed): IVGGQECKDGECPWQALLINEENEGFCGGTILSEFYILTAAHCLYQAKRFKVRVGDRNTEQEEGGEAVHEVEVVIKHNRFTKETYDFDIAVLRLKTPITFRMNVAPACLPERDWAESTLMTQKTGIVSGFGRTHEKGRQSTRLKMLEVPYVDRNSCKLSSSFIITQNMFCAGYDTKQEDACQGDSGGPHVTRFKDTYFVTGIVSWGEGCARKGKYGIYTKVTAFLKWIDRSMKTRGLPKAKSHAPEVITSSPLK
# T1 sequence (P00742 41-179 limits assumed): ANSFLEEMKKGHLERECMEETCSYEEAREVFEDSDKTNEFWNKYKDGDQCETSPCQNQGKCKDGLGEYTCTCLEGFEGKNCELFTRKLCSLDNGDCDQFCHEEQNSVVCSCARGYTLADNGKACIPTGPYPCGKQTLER
# Sequence of human Plasma Kallikrein (P03952 391-638 limits assumed): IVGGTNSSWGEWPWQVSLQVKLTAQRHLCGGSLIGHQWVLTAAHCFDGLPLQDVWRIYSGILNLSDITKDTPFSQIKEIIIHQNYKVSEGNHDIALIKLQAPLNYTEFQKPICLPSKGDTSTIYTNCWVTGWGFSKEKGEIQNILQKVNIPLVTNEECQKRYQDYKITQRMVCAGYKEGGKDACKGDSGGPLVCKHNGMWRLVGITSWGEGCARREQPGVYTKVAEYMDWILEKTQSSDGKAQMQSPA
# Sequence of human Plasma Kallikrein (P03952 20-390 partner limits assumed): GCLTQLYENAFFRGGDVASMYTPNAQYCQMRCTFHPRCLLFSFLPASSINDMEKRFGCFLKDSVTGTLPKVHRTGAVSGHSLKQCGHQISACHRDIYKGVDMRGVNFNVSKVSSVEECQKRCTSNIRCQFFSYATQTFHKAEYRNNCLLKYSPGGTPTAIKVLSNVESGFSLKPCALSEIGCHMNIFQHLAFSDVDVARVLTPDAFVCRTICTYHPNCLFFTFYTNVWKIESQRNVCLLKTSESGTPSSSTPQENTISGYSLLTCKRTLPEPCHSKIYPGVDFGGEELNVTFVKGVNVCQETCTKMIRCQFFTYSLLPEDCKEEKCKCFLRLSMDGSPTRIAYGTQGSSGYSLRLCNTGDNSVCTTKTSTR
SMILES,Ki [1] [µM],Ki (human Factor Xa),Ki (human Thrombin) [µM],Ki (trypsin) [µM],Ki (plasmin) [µM],Ki (human Plasma Kallikrein) [µM]
N=C(N)c1ccc(NC(=O)[C@@H]2C[C@@H](Oc3cccc(C(=N)N)c3)CN2Cc2ccccc2[N+](=O)[O-])cc1 [compound 5],> 39,2.13 µM,14.5,2.14,7,16
CC(=O)N1C[C@H](Oc2cccc(C(=N)N)c2)C[C@H]1C(=O)Nc1ccc(C(=N)N)cc1 [compound 14],> 39,6.61 µM,> 36.2,10.1,> 24.5,–
N=C(N)c1cccc(O[C@@H]2C[C@@H](C(=O)Nc3ccc(Cl)cc3)N(C(=O)c3ccccc3)C2)c1 [compound 17],> 39,7.88 µM,–,3.6,–,> 33.8
C=CCOC(=O)[C@@H]1C[C@@H](Oc2cccc(C(=N)N)c2)CN1 [compound 27],15.6,14 µM,–,14.1,> 24.6,–
N=C(N)c1cccc(O[C@@H]2C[C@@H](C(=O)N3CCc4ccccc4C3)N(S(=O)(=O)c3ccccc3)C2)c1 [compound 21],> 39,10.5 µM,14.5,20.2,–,–
CN(Cc1ccccc1)C(=O)[C@@H]1C[C@@H](Oc2cccc(C(=N)N)c2)CN1Cc1ccccc1 [compound 15],156,6.8 µM,11,2.26,15.4,34.2
C=CCOC(=O)[C@@H]1C[C@@H](Oc2cccc(C(=N)N)c2)CN1C(C)=O [compound 76],–,–,> 36.2,30.3,> 24.5,> 33.8
CCCCCCN1C[C@H](Oc2cccc(C(=N)N)c2)C[C@H]1C(=O)Nc1ccc(C(=N)N)cc1 [compound 16],> 39,6.81 µM,29,6.07,12,17
COc1cc2c(cc1OC)CN(C(=O)[C@@H]1C[C@@H](Oc3cccc(C(=N)N)c3)CN1)CC2 [compound 11],–,5.84 µM,0.875,0.607,7.36,0.979
N=C(N)c1cccc(O[C@@H]2C[C@@H](C(=O)N3CCc4ccccc4C3)N(C(=O)c3ccccc3)C2)c1 [compound 32],> 399,15.3 µM,–,7.84,–,–
CS(=O)(=O)N1C[C@H](Oc2cccc(C(=N)N)c2)C[C@H]1C(=O)Nc1ccc(Cl)cc1 [compound 52],> 39,–,> 36.2,40.5,> 24.5,27
C=CCOC(=O)[C@@H]1C[C@@H](Oc2cccc(C(=N)N)c2)CN1C(=O)c1ccccc1 [compound 36],–,19.9 µM and 14 µM,21.7,4.26,–,> 33.8
N=C(N)c1ccc(NC(=O)[C@@H]2C[C@@H](Oc3cccc(C(=N)N)c3)CN2C2CCCCC2)cc1 [compound 6],> 39,2.41 µM,–,5.15,15,3.4
N=C(N)c1ccc(NC(=O)[C@@H]2C[C@@H](Oc3cccc(C(=N)N)c3)CN2Cc2ccc([N+](=O)[O-])cc2)cc1 [compound 22],> 39,10.5 µM,> 36,7.76,15,3.4
N=C(N)c1cccc(O[C@H]2CN[C@H](C(=O)Nc3ccccc3)C2)c1 [compound 79],19,> 35 µM,> 36,20,24,–
N=C(N)c1ccc(NC(=O)[C@@H]2C[C@@H](Oc3cccc(C(=N)N)c3)CN2Cc2ccccc2[N+](=O)[O-])cc1 [compound 7],> 39,2.49 µM,25,2.22,7,20
COC(=O)[C@@H]1C[C@@H](Oc2cccc(C(=N)N)c2)CN1 [compound 80],> 39,> 35.1 µM,> 36.2,28.3,> 24.6,55
CCCN1C[C@H](Oc2cccc(C(=N)N)c2)C[C@H]1C(=O)Nc1ccc(C(=N)N)cc1 [compound 1],7.8,0.297 µM,4.74,0.866,7.36,6.56
C=CCOC(=O)[C@@H]1C[C@@H](Oc2cccc(C(=N)N)c2)CN1Cc1ccccc1 [compound 60],–,–,–,4.99,–,–
